According to US20230278972A1, “SUBSTITUTED HALOALKYL SULFONANILIDE HERBICIDES” (FMC Corporation, priority 2020, published 2023):

Experiments:
Format in all cases: in vivo
[1] = tested on: Ryegrass, Italian (Italian ryegrass, Lolium multiflorum); assay: Test A preemergence, Ryegrass, Italian; conditions: Preemergence; for Plant response rating, Ryegrass, Italian: 0 to 100 scale (0 no effect, 100 complete control); for Ryegrass, Italian plant response rating: visual injury on 0 to 100 scale (0 no effect, 100 complete control), approximately 10 days
Method in brief: (§1)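 Postemergence ratings come from foliar sprays onto one- to two-leaf plants of 2 to 10 cm grown in loam/sand; preemergence ratings come from a directed spray onto the soil of newly seeded pots. Formulation was a surfactant-containing non-phytotoxic solvent blend.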

[2] = tested on: blackgrass (Alopecurus myosuroides); assay: Test A postemergence, blackgrass; conditions: Postemergence, 0 to 100 scale (0 no effect, 100 complete control); for Blackgrass plant response rating: 500 g ai/ha, visual injury vs untreated controls after approx. 10 days
Method in brief: as §1

[3] = tested on: Ryegrass, Italian (Italian ryegrass, Lolium multiflorum); assay: Test A postemergence, Ryegrass, Italian; conditions: Postemergence, 0 to 100 scale (0 no effect, 100 complete control); for Ryegrass, Italian plant response rating: 500 g ai/ha, visual injury vs untreated controls after approx. 10 days
Method in brief: as §1

[4] = tested on: kochia (Bassia scoparia); assay: Test A postemergence, kochia; conditions: Postemergence, 0 to 100 scale (0 no effect, 100 complete control); for Kochia plant response rating: 500 g ai/ha, visual injury vs untreated controls after approx. 10 days
Method in brief: as §1

[5] = tested on: ragweed (common ragweed, Ambrosia artemisiifolia); assay: Test A postemergence, ragweed; conditions: Postemergence, 0 to 100 scale (0 no effect, 100 complete control); for Ragweed plant response rating: 500 g ai/ha, visual injury vs untreated controls after approx. 10 days
Method in brief: as §1

[6] = tested on: ragweed (common ragweed, Ambrosia artemisiifolia); assay: Test A preemergence, ragweed; conditions: Preemergence; for Plant response rating, Ragweed: 0 to 100 scale (0 no effect, 100 complete control); for Ragweed plant response rating: visual injury on 0 to 100 scale (0 no effect, 100 complete control), approximately 10 days
Method in brief: as §1

[7] = tested on: wheat (Triticum aestivum); assay: Test A postemergence, wheat; conditions: Postemergence, 0 to 100 scale (0 no effect, 100 complete control); for Wheat plant response rating: 500 g ai/ha, visual injury vs untreated controls after approx. 10 days
Method in brief: (§2)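 Preemergence: seeded pots of loam plus sand received a directed soil spray. Postemergence: seedlings at one to two leaves, 2 to 10 cm high, were oversprayed. Each compound was formulated in a non-phytotoxic solvent mix that included a surfactant.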

[8] = tested on: pigweed (Amaranthus retroflexus); assay: Test A postemergence, pigweed; conditions: Postemergence, 0 to 100 scale (0 no effect, 100 complete control); for Pigweed plant response rating: 500 g ai/ha, visual injury vs untreated controls after approx. 10 days
Method in brief: as §1

[9] = tested on: kochia (Bassia scoparia); assay: Test A preemergence, kochia; conditions: Preemergence; for Plant response rating, Kochia: 0 to 100 scale (0 no effect, 100 complete control); for Kochia plant response rating: visual injury on 0 to 100 scale (0 no effect, 100 complete control), approximately 10 days
Method in brief: as §1

[10] = tested on: galium (catchweed bedstraw, Galium aparine); assay: Test A postemergence, galium; conditions: Postemergence, 0 to 100 scale (0 no effect, 100 complete control); for Galium plant response rating: 500 g ai/ha, visual injury vs untreated controls after approx. 10 days
Method in brief: as §2

[11] = tested on: Foxtail, Giant (giant foxtail, Setaria faberi); assay: Test A preemergence, Foxtail, Giant; conditions: Preemergence; for Plant response rating, Foxtail, Giant: 0 to 100 scale (0 no effect, 100 complete control); for Foxtail, Giant plant response rating: visual injury on 0 to 100 scale (0 no effect, 100 complete control), approximately 10 days
Method in brief: as §1

[12] = tested on: barnyardgrass (Echinochloa crus-galli); assay: Test A postemergence, barnyardgrass; conditions: Postemergence, 0 to 100 scale (0 no effect, 100 complete control); for Barnyardgrass plant response rating: 500 g ai/ha, visual injury vs untreated controls after approx. 10 days
Method in brief: as §2

[13] = tested on: corn (Zea mays); assay: Test A postemergence, corn; conditions: Postemergence, 0 to 100 scale (0 no effect, 100 complete control); for Corn plant response rating: 500 g ai/ha, visual injury vs untreated controls after approx. 10 days
Method in brief: as §1

[14] = tested on: pigweed (Amaranthus retroflexus); assay: Test A preemergence, pigweed; conditions: for Plant response rating, Pigweed: 0 to 100 scale (0 no effect, 100 complete control); for Pigweed plant response rating: visual injury on 0 to 100 scale (0 no effect, 100 complete control), approximately 10 days
Method in brief: as §2

[15] = tested on: Foxtail, Giant (giant foxtail, Setaria faberi); assay: Test A postemergence, Foxtail, Giant; conditions: Postemergence, 0 to 100 scale (0 no effect, 100 complete control); for Foxtail, Giant plant response rating: 500 g ai/ha, visual injury vs untreated controls after approx. 10 days
Method in brief: as §1

[16] = tested on: barnyardgrass (Echinochloa crus-galli); assay: Test A preemergence, barnyardgrass; conditions: Preemergence; for Plant response rating, Barnyardgrass: 0 to 100 scale (0 no effect, 100 complete control); for Barnyardgrass plant response rating: visual injury on 0 to 100 scale (0 no effect, 100 complete control), approximately 10 days
Method in brief: as §1

[17] = 31 g ai/ha, visual injury, approx. 10 days
[18] = 125 g ai/ha, visual injury approx. 10 days
[19] = 125 g ai/ha, visual injury, approx. 10 days

COC1CCCN(C(=O)c2cc(N(COC(C)=O)S(=O)(=O)C(F)(F)F)c(C)cc2C)C1 (stereo not drawn) [Compound 96]
Plant response rating, Ryegrass, Italian [1, 17]: 0 | Ryegrass, Italian plant response rating ([1]; 125 g ai/ha): 80 | Plant response rating, Blackgrass ([2]; 31 g ai/ha): 0 | Plant response rating, Blackgrass [2, 18]: 0 | Plant response rating, Ryegrass, Italian ([3]; 31 g ai/ha): 0 | Plant response rating, Ryegrass, Italian [3, 18]: 20 | Plant response rating, Kochia ([4]; 31 g ai/ha): 10 | Plant response rating, Kochia [4, 18]: 20 | Plant response rating, Ragweed ([5]; 31 g ai/ha): 30 | Plant response rating, Ragweed [5, 18]: 40 | Plant response rating, Ragweed [6, 17]: 0 | Ragweed plant response rating ([6]; 125 g ai/ha): 30 | Plant response rating, Wheat ([7]; 31 g ai/ha): 0 | Plant response rating, Wheat [7, 18]: 40 | Plant response rating, Pigweed ([8]; 31 g ai/ha): 30 | Plant response rating, Pigweed [8, 18]: 30 | Plant response rating, Kochia [9, 17]: 0 | Kochia plant response rating ([9]; 125 g ai/ha): 0 | Plant response rating, Galium ([10]; 31 g ai/ha): 80 | Plant response rating, Galium [10, 18]: 80 | Plant response rating, Foxtail, Giant [11, 17]: 40 | Foxtail, Giant plant response rating ([11]; 125 g ai/ha): 80 | Plant response rating, Barnyardgrass ([12]; 31 g ai/ha): 0 | Plant response rating, Barnyardgrass [12, 18]: 30 | Plant response rating, Corn ([13]; 31 g ai/ha): 10 | Plant response rating, Corn [13, 18]: 10 | Plant response rating, Pigweed [14, 17]: 20 | Pigweed plant response rating ([14]; 125 g ai/ha): 90 | Plant response rating, Foxtail, Giant ([15]; 31 g ai/ha): 0 | Plant response rating, Foxtail, Giant [15, 18]: 10 | Plant response rating, Barnyardgrass [16, 17]: 10 | Barnyardgrass plant response rating ([16]; 125 g ai/ha): 70

Cc1cc(C)c(C(=O)N2CCC3(CC2)OCCCO3)cc1NS(=O)(=O)C(F)(F)F [Compound 194]
Plant response rating, Ryegrass, Italian [1, 19]: 30 | Plant response rating, Ryegrass, Italian ([1]; 500 g ai/ha): 100 | Plant response rating, Blackgrass ([2]; 125 g ai/ha): 0 | Blackgrass plant response rating [2]: 0 | Plant response rating, Ryegrass, Italian ([3]; 125 g ai/ha): 0 | Ryegrass, Italian plant response rating [3]: 50 | Plant response rating, Kochia ([4]; 125 g ai/ha): 20 | Kochia plant response rating [4]: 40 | Plant response rating, Ragweed ([5]; 125 g ai/ha): 60 | Ragweed plant response rating [5]: 90 | Plant response rating, Ragweed [6, 19]: 80 | Plant response rating, Ragweed ([6]; 500 g ai/ha): 90 | Plant response rating, Wheat ([7]; 125 g ai/ha): 0 | Wheat plant response rating [7]: 60 | Plant response rating, Pigweed ([8]; 125 g ai/ha): 0 | Pigweed plant response rating [8]: 50 | Plant response rating, Kochia [9, 19]: 40 | Plant response rating, Kochia ([9]; 500 g ai/ha): 90 | Plant response rating, Galium ([10]; 125 g ai/ha): 70 | Galium plant response rating [10]: 90 | Plant response rating, Foxtail, Giant [11, 19]: 80 | Plant response rating, Foxtail, Giant ([11]; 500 g ai/ha): 100 | Plant response rating, Barnyardgrass ([12]; 125 g ai/ha): 0 | Barnyardgrass plant response rating [12]: 80 | Plant response rating, Corn ([13]; 125 g ai/ha): 0 | Corn plant response rating [13]: 0 | Plant response rating, Pigweed [14, 19]: 90 | Plant response rating, Pigweed ([14]; 500 g ai/ha): 100 | Plant response rating, Foxtail, Giant ([15]; 125 g ai/ha): 10 | Foxtail, Giant plant response rating [15]: 80 | Plant response rating, Barnyardgrass [16, 19]: 90 | Plant response rating, Barnyardgrass ([16]; 500 g ai/ha): 90

Cc1cc(Cl)c(C2=NOC3(CCCC3)C2)cc1NS(=O)(=O)C(F)(F)F [Compound 185]
Ryegrass, Italian plant response rating ([1]; 125 g ai/ha): 50 | Plant response rating, Ryegrass, Italian ([1]; 500 g ai/ha): 100 | Plant response rating, Blackgrass ([2]; 125 g ai/ha): 0 | Blackgrass plant response rating [2]: 10 | Plant response rating, Ryegrass, Italian ([3]; 125 g ai/ha): 0 | Ryegrass, Italian plant response rating [3]: 0 | Plant response rating, Kochia ([4]; 125 g ai/ha): 0 | Kochia plant response rating [4]: 10 | Plant response rating, Ragweed ([5]; 125 g ai/ha): 0 | Ragweed plant response rating [5]: 40 | Ragweed plant response rating ([6]; 125 g ai/ha): 20 | Plant response rating, Ragweed ([6]; 500 g ai/ha): 70 | Plant response rating, Wheat ([7]; 125 g ai/ha): 0 | Wheat plant response rating [7]: 0 | Plant response rating, Pigweed ([8]; 125 g ai/ha): 0 | Pigweed plant response rating [8]: 40 | Kochia plant response rating ([9]; 125 g ai/ha): 0 | Plant response rating, Kochia ([9]; 500 g ai/ha): 0 | Plant response rating, Galium ([10]; 125 g ai/ha): 30 | Galium plant response rating [10]: 70 | Foxtail, Giant plant response rating ([11]; 125 g ai/ha): 50 | Plant response rating, Foxtail, Giant ([11]; 500 g ai/ha): 100 | Plant response rating, Barnyardgrass ([12]; 125 g ai/ha): 0 | Barnyardgrass plant response rating [12]: 20 | Plant response rating, Corn ([13]; 125 g ai/ha): 0 | Corn plant response rating [13]: 0 | Pigweed plant response rating ([14]; 125 g ai/ha): 50 | Plant response rating, Pigweed ([14]; 500 g ai/ha): 80 | Plant response rating, Foxtail, Giant ([15]; 125 g ai/ha): 0 | Foxtail, Giant plant response rating [15]: 0 | Barnyardgrass plant response rating ([16]; 125 g ai/ha): 70 | Plant response rating, Barnyardgrass ([16]; 500 g ai/ha): 100
